What was measured:
C-cell calcium receptor = biological target: T1, C-cell calcium receptor (Rattus norvegicus, UniProt P48442); test: [Ca2+]i in rat medullary thyroid carcinoma C-cell line (44-2 cells); format: cell-based; settings: 1 mM extracellular Ca2+, read-out: EC50 for increase in [Ca2+]i
T1 construct: cultured cell lines expressing the C-cell phenotype (e.g., rat medullary thyroid carcinoma cells; rMTC 6-23 cells); host or cells: rMTC 6-23 rat medullary thyroid carcinoma cells
T1 sequence (P48442 20-1079): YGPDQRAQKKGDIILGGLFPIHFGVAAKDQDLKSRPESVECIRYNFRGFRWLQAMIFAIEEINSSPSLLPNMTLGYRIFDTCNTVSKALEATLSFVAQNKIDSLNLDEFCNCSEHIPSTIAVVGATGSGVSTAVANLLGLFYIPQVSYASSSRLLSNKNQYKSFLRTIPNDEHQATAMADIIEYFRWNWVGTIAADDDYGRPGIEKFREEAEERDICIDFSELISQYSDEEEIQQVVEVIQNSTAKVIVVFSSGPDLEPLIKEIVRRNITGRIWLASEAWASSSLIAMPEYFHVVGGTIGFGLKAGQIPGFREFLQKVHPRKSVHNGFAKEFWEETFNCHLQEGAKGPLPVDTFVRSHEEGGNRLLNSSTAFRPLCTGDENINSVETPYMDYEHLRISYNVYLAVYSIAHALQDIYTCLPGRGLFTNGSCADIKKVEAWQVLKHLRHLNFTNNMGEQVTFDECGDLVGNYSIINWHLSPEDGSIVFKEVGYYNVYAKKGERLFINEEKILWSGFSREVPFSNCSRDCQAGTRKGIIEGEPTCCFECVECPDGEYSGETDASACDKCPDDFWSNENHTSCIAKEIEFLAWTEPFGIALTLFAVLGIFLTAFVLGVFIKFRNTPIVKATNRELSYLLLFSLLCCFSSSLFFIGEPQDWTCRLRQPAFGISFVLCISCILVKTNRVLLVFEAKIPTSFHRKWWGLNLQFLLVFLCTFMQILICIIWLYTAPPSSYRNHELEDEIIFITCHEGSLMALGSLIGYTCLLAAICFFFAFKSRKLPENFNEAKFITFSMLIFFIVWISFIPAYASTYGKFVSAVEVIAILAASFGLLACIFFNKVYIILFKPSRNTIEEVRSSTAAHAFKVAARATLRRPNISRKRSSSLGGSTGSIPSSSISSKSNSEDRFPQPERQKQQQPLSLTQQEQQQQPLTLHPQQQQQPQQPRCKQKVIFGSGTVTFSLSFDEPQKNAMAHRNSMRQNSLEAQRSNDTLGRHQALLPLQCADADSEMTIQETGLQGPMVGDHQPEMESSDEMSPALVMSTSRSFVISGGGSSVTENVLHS
From the text: C-cells appear to express a calcium receptor that is structurally similar to that present on parathyroid cells (see Example 31). […] Thus, compounds in this structural series appear to activate the C-cell calcium receptor.

[1] = system: parathyroidectomized rats; test: Serum ionized Ca2+ in parathyroidectomized animals; format: in vivo, rat
From the text: To determine the primary target tissue upon which NPS R-467 acts to cause a hypocalcemic response, the parathyroid glands in rats were surgically removed. Animals receiving a total parathyroidectomy become hypocalcemic and are largely dependent upon dietary calcium to maintain serum Ca^2+ homeostasis.

[2] = biological target: T2, bovine parathyroid cell calcium receptor (Bos taurus, UniProt P35384); test: Cl- current in Xenopus oocytes injected with BoPCaR 1; format: cell-based
T2 construct: isolation of a single clone (BoPCaR 1) with a cDNA insert of 5.3 kb; expressed in transfected cells
T2 sequence (P35384 20-1085): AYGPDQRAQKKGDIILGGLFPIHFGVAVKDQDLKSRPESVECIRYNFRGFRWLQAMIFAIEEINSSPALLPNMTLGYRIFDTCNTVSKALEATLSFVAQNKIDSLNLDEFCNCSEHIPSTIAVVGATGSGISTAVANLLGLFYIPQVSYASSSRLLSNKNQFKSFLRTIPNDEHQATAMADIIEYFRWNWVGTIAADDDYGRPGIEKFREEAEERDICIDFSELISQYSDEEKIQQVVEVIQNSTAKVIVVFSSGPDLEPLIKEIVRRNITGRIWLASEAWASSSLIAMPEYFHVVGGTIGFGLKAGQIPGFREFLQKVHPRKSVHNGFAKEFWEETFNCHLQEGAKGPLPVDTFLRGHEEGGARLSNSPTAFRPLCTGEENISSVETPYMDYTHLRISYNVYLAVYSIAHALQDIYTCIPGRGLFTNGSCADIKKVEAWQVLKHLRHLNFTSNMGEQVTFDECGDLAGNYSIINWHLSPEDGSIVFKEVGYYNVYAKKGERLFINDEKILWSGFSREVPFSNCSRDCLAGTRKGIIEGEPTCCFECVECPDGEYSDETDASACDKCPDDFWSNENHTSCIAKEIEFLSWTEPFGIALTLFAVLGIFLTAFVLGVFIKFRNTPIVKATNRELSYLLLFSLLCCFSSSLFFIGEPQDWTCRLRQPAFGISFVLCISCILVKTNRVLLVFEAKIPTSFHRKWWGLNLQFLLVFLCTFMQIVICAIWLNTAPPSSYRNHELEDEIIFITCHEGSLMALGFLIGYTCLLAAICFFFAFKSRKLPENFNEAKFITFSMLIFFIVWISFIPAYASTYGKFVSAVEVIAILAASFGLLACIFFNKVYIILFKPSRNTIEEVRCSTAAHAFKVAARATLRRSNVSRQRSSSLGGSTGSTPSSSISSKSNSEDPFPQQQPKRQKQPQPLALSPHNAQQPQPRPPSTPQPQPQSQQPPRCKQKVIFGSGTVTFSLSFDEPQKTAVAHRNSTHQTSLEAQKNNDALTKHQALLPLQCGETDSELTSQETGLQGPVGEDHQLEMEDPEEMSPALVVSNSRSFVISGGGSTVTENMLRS
Experimental: Several pharmacological and biochemical criteria were used to identify this clone as encoding a bona fide bovine parathyroid Ca^2+ receptor. […] These responses increased markedly over a period of one to four days after injection of the eggs with cRNA prepared from the BoPCaR 1 cDNA. Furthermore, the ranges of the concentrations of the two cations eliciting this response were very similar to those shown previously to act on bovine parathyroid cells in vitro.
Xenopus oocytes were injected with BoPCaR 1, the 5.3 Kb cDNA encoding a bovine parathyroid cell calcium receptor as described in Example 25. After two to three days, Cl^− currents were examined in the oocytes using a two-electrode voltage clamp.
Xenopus oocytes were injected with BoPCaR 1 as described in Example 25. After two to three days, Cl^− currents were examined in the oocytes using two electrode voltage clamp.

SMILES | EC50 (C-cell calcium receptor) | change in serum ionized Ca2+ ([1]; 10 mg/kg i.p., over 6 hours) | EC50 ([2]; 0.3 or 1 mM extracellular Ca2+, read-out: EC50 for increases in Cl- current) | hypocalcemic response ([1]; oral administration) | concentrations producing changes in Cl- current [2]
COc1cccc([C@@H](C)NCCCc2ccccc2)c1 (single isomer, unassigned) [NPS R-467] | 1900 nM | did not cause any change in serum ionized Ca^2+ levels |  |  | 
COc1cccc([C@@H](C)NCCCc2ccccc2Cl)c1 [NPS R-568, (R)-(+)-N-[3-(2-chlorophenyl)propyl]-α-methyl-3-methoxybenzylamine] | 2200 nM |  | ~3 µM | fails to elicit a hypocalcemic response | 
NC[C@@H]1O[C@H](O[C@H]2[C@@H](O)[C@H](O[C@@H]3[C@@H](O)[C@H](N)C[C@H](N)[C@H]3O[C@H]3O[C@H](CN)[C@@H](O)[C@H](O)[C@H]3N)O[C@@H]2CO)[C@H](N)[C@@H](O)[C@@H]1O [Neomycin B, neomycin B] |  |  |  |  | 20 to 100 µM

From patent US20130190407A1, “CALCIUM RECEPTOR-ACTIVE MOLECULES” (NPS Pharmaceuticals, Inc., priority 1991, published 2013)
